How the values were obtained:
[1] = test system: HEp-2 (larynx cancer cells); assay: 48 h incubation with the salts: cell fluorescence, living cells, multiplication coefficient (Table 3); format: cell-based, Human; conditions: 48 hs, 50 mcg/ml
Procedure: (§1) New compounds of formula 1 were tested on cell lines. Use was made of 9 different neoplastic cell lines which were incubated for 48 hs with various new salts of protoporphyrin and with a new salt of the conventionally applied HpD preparation/hematoporphyrin derivatives/obtained according to Lipson et al. All compounds were used in the form of aqueous solutions, at a concentration of 50 mcg/ml. Determination was made of:
(§2) 1/ Cell fluorescence /F/: after 48 hs incubation, the cells were washed away, the intensity of fluorescence was measured in a fluorescence microscope and was expressed on an arbitrary scale of 0-4 scores;
(§3) 2/ Percentage of living cells /P %/ after 48 hs incubation;
(§4) 3/ Cell multiplication coefficient /M/ in the presence of different preparations, expressed as: [formula]
Hep-2 larynx cancer cells

[2] = test system: KB (oral cavity cancer cells); assay: 48 h incubation with the salts: cell fluorescence, living cells, multiplication coefficient (Table 2); format: cell-based, Human; conditions: 48 hs, 50 mcg/ml
Procedure: as §1, §2, §3, §4
KB oral cavity cancer cells

[3] = test system: Hela (cervix uteri cancer cells); assay: 48 h incubation with the salts: cell fluorescence, living cells, multiplication coefficient (Table 1); format: cell-based, Human; conditions: 48 hs, 50 mcg/ml
Procedure: as §1, §2, §3, §4

[4] = test system: HBT-39/w (breast cancer cells); assay: 48 h incubation with the salts: cell fluorescence, living cells, multiplication coefficient (Table 2); format: cell-based, Human; conditions: 48 hs, 50 mcg/ml
Procedure: as §1, §2, §3, §4

[5] = test system: GR (GRMT/F6, mammary gland cancer cells of GR-strain mice); assay: as above; format: cell-based, Murine; conditions: 48 hs, 50 mcg/ml
Procedure: as §1, §2, §3, §4
GRMT/F6 mammary gland cancer cells of GR-strain mice

CL = assay: 48 h incubation with the salts: cell fluorescence, living cells, multiplication coefficient (Table 1); format: cell-based; conditions: 48 hs, 50 mcg/ml
Procedure: as §1, §2, §3, §4

PZ = assay: as above; format: cell-based; conditions: 48 hs, 50 mcg/ml
Procedure: as §1, §2, §3, §4

[6] = test system: MA-104 (Rhesus monkey embryo kidney cancer cells); assay: as above; format: cell-based; conditions: 48 hs, 50 mcg/ml
Procedure: as §1, §2, §3, §4

[7] = test system: Mm (Mm5MT/C1, mammary gland cancer cells of C3H-strain mice); assay: 48 h incubation with the salts: cell fluorescence, living cells, multiplication coefficient (Table 3); format: cell-based, Murine; conditions: for Cell fluorescence /F/ / Cell multiplication coefficient /M/ / Percentage of living cells /P %/: Mm, 48 hs, 50 mcg/ml
Procedure: as §1, §2, §3, §4
mammary gland cancer cells of C3H-strain mice

[8] = test system: T-47D (breast cancer cells); assay: as above; format: cell-based, Human; conditions: 48 hs, 50 mcg/ml
Procedure: as §1, §2, §3, §4
T-47D breast cancer cells

**Q.** Which “Cell fluorescence /F/” value [1] does the source give for `CC1=C(CCC(=O)O)c2cc3[nH]c(cc4nc(cc5[nH]c(cc1n2)c(C(C)NC(CCC(=O)O)C(=O)O)c5C)C(C(C)NC(CCC(=O)O)C(=O)O)=C4C)c(C)c3CCC(=O)O.N=C(N)NCCC[C@H](N)C(=O)O.N=C(N)NCCC[C@H](N)C(=O)O` (stereo not drawn) [PP/Glu/2 /Arg/2, l-arginine di/N-glutamyl/-protoporphyrinate] here?
**A.** Its value is “++++”.

**Q.** And the “Cell multiplication coefficient /M/” value [1]?
**A.** Its value is 0,08.

**Q.** And the “Percentage of living cells /P %/” value [1]?
**A.** The value was 15%.

**Q.** What about the “Cell fluorescence /F/” value [2] of the same compound?
**A.** The value was “++++”.

**Q.** What about the “Cell multiplication coefficient /M/” value [2] of the same compound?
**A.** The value was 0,08.

**Q.** What about the “Percentage of living cells /P %/” value [2] of the same compound?
**A.** Its value is 8%.

**Q.** What about the “Cell fluorescence /F/” value [3] of the same compound?
**A.** Its value is “++”.

**Q.** And the “Cell multiplication coefficient /M/” value [3]?
**A.** The value was 0,16.

**Q.** And the “Percentage of living cells /P %/” value [3]?
**A.** The value was 33%.

**Q.** What about the “Cell fluorescence /F/” value [4] of the same compound?
**A.** The value was “+”.

**Q.** What about the “Cell multiplication coefficient /M/” value [4] of the same compound?
**A.** The value was 0,73.

**Q.** What about the “Percentage of living cells /P %/” value [4] of the same compound?
**A.** Its value is 66%.

**Q.** And the “Cell fluorescence /F/” value [5]?
**A.** Its value is “+”.

**Q.** And the “Cell multiplication coefficient /M/” value [5]?
**A.** Its value is 0,75.

**Q.** What about the “Percentage of living cells /P %/” value [5] of the same compound?
**A.** Its value is 75%.

**Q.** What about the “Cell fluorescence /F/” value (CL) of the same compound?
**A.** Its value is “-”.

**Q.** And the “Cell multiplication coefficient /M/” value (CL)?
**A.** Its value is 0,45.

**Q.** And the “Percentage of living cells /P %/” value (CL)?
**A.** Its value is 45%.

**Q.** And the “Cell fluorescence /F/” value (PZ)?
**A.** Its value is “+”.

**Q.** What about the “Cell multiplication coefficient /M/” value (PZ) of the same compound?
**A.** The value was 0,15.

**Q.** What about the “Percentage of living cells /P %/” value (PZ) of the same compound?
**A.** Its value is 15%.

**Q.** And the “Cell fluorescence /F/” value [6]?
**A.** The value was “-”.

**Q.** And the “Cell multiplication coefficient /M/” value [6]?
**A.** The value was 0,16.

**Q.** What about the “Percentage of living cells /P %/” value [6] of the same compound?
**A.** Its value is 15%.

**Q.** What about the “Cell fluorescence /F/” value [7] of the same compound?
**A.** The value was “+++”.

**Q.** And the “Cell multiplication coefficient /M/” value [7]?
**A.** The value was 0,70.

**Q.** What about the “Percentage of living cells /P %/” value [7] of the same compound?
**A.** The value was 76%.

**Q.** And the “activity in studies of the Mm5MT/C1 cell line (in words)” value ([7]; mammary gland cancer of C3H mice)?
**A.** The value was “least effective against this type of neoplasm”.

**Q.** And the “Cell fluorescence /F/” value [8]?
**A.** Its value is “+++”.

**Q.** And the “Cell multiplication coefficient /M/” value [8]?
**A.** Its value is 0,80.

**Q.** What about the “Percentage of living cells /P %/” value [8] of the same compound?
**A.** The value was 49%.

**Q.** With `CC1=C(CCC(=O)O)c2cc3[nH]c(cc4nc(cc5[nH]c(cc1n2)c(C(C)NC(CS)C(=O)O)c5C)C(C(C)NC(CS)C(=O)O)=C4C)c(C)c3CCC(=O)O.N=C(N)NCCC[C@H](N)C(=O)O.N=C(N)NCCC[C@H](N)C(=O)O` (stereo not drawn) [PP/Cys/2 /Arg/2, l-arginine di/N-cysteyl/-protoporphyrinate] as the compound, how does the “Cell fluorescence /F/” value [1] read?
**A.** Its value is “++++”.

**Q.** And the “Cell multiplication coefficient /M/” value [1]?
**A.** The value was 0,32.

**Q.** And the “Percentage of living cells /P %/” value [1]?
**A.** Its value is 60%.

**Q.** What about the “Cell fluorescence /F/” value [2] of the same compound?
**A.** Its value is “+”.

**Q.** What about the “Cell multiplication coefficient /M/” value [2] of the same compound?
**A.** The value was 0,12.

**Q.** What about the “Percentage of living cells /P %/” value [2] of the same compound?
**A.** The value was 12%.

**Q.** And the “Cell fluorescence /F/” value [3]?
**A.** The value was “++”.

**Q.** And the “Cell multiplication coefficient /M/” value [3]?
**A.** The value was 0,43.

**Q.** And the “Percentage of living cells /P %/” value [3]?
**A.** The value was 55%.

**Q.** What about the “Cell fluorescence /F/” value [4] of the same compound?
**A.** Its value is “+”.

**Q.** What about the “Cell multiplication coefficient /M/” value [4] of the same compound?
**A.** The value was 0,53.

**Q.** And the “Percentage of living cells /P %/” value [4]?
**A.** Its value is 42%.

**Q.** And the “Cell fluorescence /F/” value [5]?
**A.** The value was “+++”.

**Q.** And the “Cell multiplication coefficient /M/” value [5]?
**A.** The value was 0,75.

**Q.** And the “Percentage of living cells /P %/” value [5]?
**A.** The value was 50%.

**Q.** What about the “Cell fluorescence /F/” value (CL) of the same compound?
**A.** Its value is “-”.

**Q.** And the “Cell multiplication coefficient /M/” value (CL)?
**A.** The value was 0,30.

**Q.** And the “Percentage of living cells /P %/” value (CL)?
**A.** The value was 30%.

**Q.** What about the “Cell fluorescence /F/” value (PZ) of the same compound?
**A.** The value was “+”.

**Q.** And the “Cell multiplication coefficient /M/” value (PZ)?
**A.** The value was 0,40.

**Q.** What about the “Percentage of living cells /P %/” value (PZ) of the same compound?
**A.** Its value is 40%.

**Q.** And the “Cell fluorescence /F/” value [6]?
**A.** Its value is “++”.

**Q.** And the “Cell multiplication coefficient /M/” value [6]?
**A.** The value was 0,16.

**Q.** What about the “Percentage of living cells /P %/” value [6] of the same compound?
**A.** The value was 11%.

**Q.** And the “Cell fluorescence /F/” value [7]?
**A.** The value was “+++”.

**Q.** And the “Cell multiplication coefficient /M/” value [7]?
**A.** The value was 0,73.

**Q.** What about the “Percentage of living cells /P %/” value [7] of the same compound?
**A.** The value was 40%.

**Q.** And the “Cell fluorescence /F/” value [8]?
**A.** Its value is “+”.

**Q.** And the “Cell multiplication coefficient /M/” value [8]?
**A.** The value was 0,84.

**Q.** And the “Percentage of living cells /P %/” value [8]?
**A.** Its value is 26%.
